The values that follow come from patent US20210171576A1, “METHODS FOR TREATING CANCER WITH ACYLDEPSIPEPTIDE ANALOGS” (priority 2018, published 2021).

Where a SMILES comes first, the peptide text is derived from it. Bridges are numbered along the chain shown (N, C = ends). [ ]: non-standard residue; d: D form. The star is where a group is joined. Phe(3,5-F2) = N[C@@H](Cc1cc(F)cc(F)c1)C(=O)O; Pip(4S-Me) = C[C@H]1CCN[C@H](C(=O)O)C1; Hexadienoyl(2E,4E) = C/C=C/C=C/C(=O)*; Pro(4R-Me) = C[C@H]1CN[C@H](C(=O)O)C1; X12 = O=C(/C=C/c1cccc(C(F)(F)F)c1)*; aThr = C[C@H](O)[C@H](N)C(=O)O; Pip = O=C(O)[C@@H]1CCCCN1; NMeA = CN[C@@H](C)C(=O)O; Cbz = O=C(OCc1ccccc1)*; X3 = O=C(/C=C/CC1CC1)*; X4 = CCCCC/C=C/C(=O)*; X7 = CCC/C=C\C(=O)*; X8 = CCC/C=C/C(=O)*; X9 = CCCCC#CC(=O)*

In data set [1] the target is T1, HsCIpP (Homo sapiens, UniProt Q16740, P57S).
T1 construct: 2x(His6-thrombin)-SUMO (N, cleaved yes); made in house; host or cells: E. coli (SG1146 stated for HsClpP; 'a similar protocol' for HsClpX)
T1 sequence (Q16740 57-277 P57S): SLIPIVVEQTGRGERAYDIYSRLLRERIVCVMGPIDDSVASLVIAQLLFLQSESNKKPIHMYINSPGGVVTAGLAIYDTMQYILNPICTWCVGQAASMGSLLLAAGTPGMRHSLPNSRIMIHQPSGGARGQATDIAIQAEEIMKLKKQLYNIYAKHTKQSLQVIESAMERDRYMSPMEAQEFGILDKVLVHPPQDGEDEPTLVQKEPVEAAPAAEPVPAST
The experiment in a line: Casein-FITC degradation by HsCIpP with HsCIpX titrated. Format: biochemical. Particulars: HsCIpX titrated 0 to 18 μM, 3 μM HsCIpP. As for the experimental part:
The protease activity of purified HsCIpP was assessed by monitoring the degradation of bovine milk casein labelled with fluorescein isothiocyanate (casein-FITC) (Sigma-Aldrich) in the presence of ADEP and/or purified HsCIpX. All reactions were carried out in 25 mM HEPES, pH 7.5, 35 mM KCl, 25 mM MgCl2, 0.03% Tween-20, 10% glycerol, and 1 mM DTT, supplemented with 16 mM creatine phosphate and 300 μM ATP. HsCIpP was used at 3 μM (final monomeric concentration) and casein-FITC was added at the final concentration of 10 μM. 13 U of creatine phosphokinase (Sigma-Aldrich) was also added for ATP regeneration. DMSO was present at 1% (v:v) final concentration in the experiments that involve the use of ADEP analogs. All reactions were carried out with 150 μL of the reaction mix per well in a 96-well black flat-bottom plate at 37° C. Degradation of casein-FITC and subsequent release of the free FITC moiety was monitored by fluorescence with λex=494 nm and λem=518 nm using the EnSpire 2300 Multilabel Reader set to perform a reading every 40 s with 20 flashes. A total of 100 readings were collected in each experiment.
To investigate the casein-FITC degradation by HsCIpXP, kinetic analysis was performed with HsCIpP held constant at 3 μM (final monomeric concentration) and HsCIpX was titrated from 0 to 18 μM (final monomeric concentration). Initial rates (v0) were determined from data collected over three independent experiments. Non-linear regression analysis was then performed on the initial rates data using the Hill equation, as follows: […]
Vmax is maximal velocity, h is the Hill coefficient, and K0.5 is the microscopic apparent dissociation constant.

Data set [2] addresses T2, human mitochondrial CIpP (HsCIpP) (Homo sapiens, UniProt Q16740).
T2 construct: made in house; host or cells: E. coli SG1146 (BL21(DE3) ΔclpP::cat)
Briefly: Screen of ADEP analogs against HsCIpP: relative degradation (RD) index, casein-FITC degradation relative to E. coli CIpAP. The settings on record: for Hs RD25: RD value at 25 μM of the ADEP analog, measure of ability to activate HsCIpP; for Hs RD1: RD value at 1 μM of the ADEP analog; for Hs RD5: RD value at 5 μM of the ADEP analog. It counts as biochemical. Further details: key: casein-FITC degradation by HsClpP relative to EcClpAP. The source says:
Structural analogs of acyldepsipeptide (ADEP) (Goodreid et al., 2016) that were previously developed as potential antibiotics against bacterial CIpP were screened and assessed for their ability to activate and dysregulate the protease activity of HsCIpP, by measuring their relative degradation (RD) index. Note that ADEP-28 was also previously reported by Carney et al. (2014). Details of the experimental protocol have been described in Leung et al., 2011. The RD index is defined as follows: […]
Δφ is the change in fluorescence after 6 hr of starting the reaction measured using 485 nm excitation and 535 nm emission, which primarily detects the signal from casein-FITC. E. coli CIpAP was used as a benchmark for maximum CIpP proteolytic activity. The CIpP in the numerator can be from any other organism. RD25 measurements refer to the measurement in the presence of 25 μM compound. All ADEP analogs were first screened at 25 μM, and their RD25 scores were calculated using the above formula and method as described in Leung et al., 2011 (FIG. 1A). Those that achieved RD25≥0.87 were screened a second time at 5 μM, followed by calculation of their RD5 scores. The top analogs with RD5≥0.74 were screened a third time at 1 μM, followed by calculation of their RD1 scores (FIG. 1B).
To identify ADEP analogs that allow HsCIpP to degrade folded proteins independent of HsCIpX+ATP (i.e., that activate or dysregulate HsCIpP), the inventors employed the in vitro screening method that was used for identifying small molecule activators of Escherichia coli CIpP (EcCIpP) (Leung et al., 2011). In this approach, the ability of HsCIpP to degrade FITC-labeled casein (casein-FITC) was measured and compared to the ability of EcCIpAP to degrade casein-FITC. This is quantitatively expressed as relative degradation (RD) index (Leung et al., 2011).

T2 sequence (Q16740 57-277): as the sequence (Q16740 57-277 P57S) above, with S1P counted along it

For the compound “HsCIpX: the AAA+ ATPase HsCIpX, untagged human mitochondrial ClpX, partner of HsCIpP”, in data set [1], the “Hill coefficient (h)” value is on record as 1.25 and the Vmax stood at 6.88 RFU.s^−1. Further, in data set [1] (read-out: K0.5), the Kd came to 5.7 µM.

Turning to `C/C=C/C=C/C(=O)N[C@@H](Cc1ccccc1)C(=O)N[C@H]1COC(=O)[C@@H]2C[C@@H](C)CN2C(=O)[C@H](C)NC(=O)[C@H](C)N(C)C(=O)[C@@H]2CCCN2C1=O` [ADEP-03] ({Hexadienoyl(2E,4E)}-FSP[NMeA]A[Pro(4R-Me)]; ester 2-C), the “Hs RD25” value in data set [2] is 0.66.

With `CCCC/C=C/C(=O)N[C@@H](Cc1cc(F)cc(F)c1)C(=O)N[C@H]1COC(=O)[C@@H]2C[C@@H](C)CN2C(=O)[C@H](C)NC(=O)[C@@H]2CCCN2C(=O)[C@@H]2CCCN2C1=O` [ADEP-15], in data set [2], the “Hs RD1” value came out at 0.58, the “Hs RD5” value is reported as 0.92 and the “Hs RD25” value is given as 1.05.

In the case of `C[C@@H]1C[C@H]2C(=O)O[C@@H](C)[C@H](NC(=O)[C@H](Cc3cc(F)cc(F)c3)NC(=O)/C=C/c3cccc(C(F)(F)F)c3)C(=O)N3CCC[C@H]3C(=O)N3CC[C@H](C)C[C@H]3C(=O)N[C@@H](C)C(=O)N2C1` [ADEP-39] (X12-[Phe(3,5-F2)][aThr]P[Pip(4S-Me)]A[Pro(4R-Me)]; ester 2-C), the “Hs RD25” value in data set [2] amounted to 0.78.

As to `C[C@@H]1C[C@H]2C(=O)OC[C@H](NC(=O)[C@@H](N)Cc3ccccc3)C(=O)N3CCC[C@H]3C(=O)N(C)[C@@H](C)C(=O)N[C@@H](C)C(=O)N2C1` [ADEP-31] (H-FSP[NMeA]A[Pro(4R-Me)]; ester 2-C), in data set [2], the “Hs RD25” value came out at 0.00.

`CCC/C=C/C(=O)N[C@@H](Cc1ccccc1)C(=O)N[C@H]1COC(=O)[C@@H]2CCCN2C(=O)[C@H](C)NC(=O)[C@H](C)N(C)C(=O)[C@@H]2CCCN2C1=O` [ADEP-09] (X8-FSP[NMeA]AP; ester 2-C): the “Hs RD25” value in data set [2] worked out at 0.76.

As for `C[C@@H]1NC(=O)[C@H](C)N(C)C(=O)[C@@H]2CCCN2C(=O)[C@@H](NC(=O)[C@H](Cc2ccccc2)NC(=O)OCc2ccccc2)COC(=O)[C@@H]2CCCN2C1=O` [ADEP-22] (Cbz-FSP[NMeA]AP; ester 2-C), the “Hs RD25” value in data set [2] stood at 0.00.

On to `CCCCC/C=C/C(=O)N[C@@H](Cc1ccccc1)C(=O)N[C@H]1COC(=O)[C@@H]2CCCN2C(=O)[C@H](C)NC(=O)[C@H](C)N(C)C(=O)[C@@H]2CCCN2C1=O` [ADEP-18] (X4-FSP[NMeA]AP; ester 2-C), for which, in data set [2], the “Hs RD5” value worked out at 0.72 and the “Hs RD25” value came out at 1.07.

Consider `C/C=C/C=C/C(=O)N[C@@H](Cc1ccccc1)C(=O)N[C@H]1COC(=O)[C@@H]2CCCN2C(=O)[C@H](C)NC(=O)[C@H](C)N(C)C(=O)[C@@H]2CCCN2C1=O` [ADEP-26] ({Hexadienoyl(2E,4E)}-FSP[NMeA]AP; ester 2-C), for which, in data set [2], the “Hs RD25” value was 0.86.

Regarding `CCCCC#CC(=O)N[C@@H](Cc1ccccc1)C(=O)N[C@H]1COC(=O)[C@@H]2CCCN2C(=O)[C@H](C)NC(=O)[C@H](C)N(C)C(=O)[C@@H]2CCCN2C1=O` [ADEP-12] (X9-FSP[NMeA]AP; ester 2-C), the “Hs RD25” value in data set [2] stood at 0.36.

`CCC/C=C\C(=O)N[C@@H](Cc1ccccc1)C(=O)N[C@H]1COC(=O)[C@@H]2CCCN2C(=O)[C@H](C)NC(=O)[C@H](C)N(C)C(=O)[C@@H]2CCCN2C1=O` [ADEP-33] (X7-FSP[NMeA]AP; ester 2-C): in data set [2], the “Hs RD25” value was determined as 0.07.

As to `CCCC/C=C/C(=O)N[C@H](Cc1ccccc1)C(=O)N[C@H]1COC(=O)[C@@H]2CCCN2C(=O)[C@H](C)NC(=O)[C@@H]2CCCCN2C(=O)[C@@H]2CCCN2C1=O` [ADEP-02], in data set [2], the “Hs RD1” value is 0.52, the “Hs RD5” value is reported as 0.88 and the “Hs RD25” value worked out at 1.08.

In the case of `CCC/C=C/C(=O)N[C@@H](Cc1cccc(F)c1)C(=O)N[C@H]1COC(=O)[C@@H]2C[C@@H](C)CN2C(=O)[C@H](C)NC(=O)[C@@H]2CCCCN2C(=O)[C@@H]2CCCN2C1=O` [ADEP-20], in data set [2], the “Hs RD1” value amounted to 0.53, the “Hs RD5” value came out at 0.90 and the “Hs RD25” value was 1.04.

Consider `C[C@@H]1NC(=O)[C@@H]2CCCCN2C(=O)[C@@H]2CCCN2C(=O)[C@@H](NC(=O)[C@H](Cc2ccccc2)NC(=O)c2ccc([N+](=O)[O-])cc2)COC(=O)[C@@H]2CCCN2C1=O` [ADEP-24], for which the “Hs RD25” value in data set [2] is recorded as 0.00.

For the compound `C[C@@H]1C[C@H]2C(=O)O[C@@H](C)[C@H](NC(=O)[C@H](Cc3cc(F)cc(F)c3)NC(=O)/C=C/CC3CC3)C(=O)N3CCC[C@H]3C(=O)N3CCCC[C@H]3C(=O)N[C@@H](C)C(=O)N2C1` [ADEP-13] (X3-[Phe(3,5-F2)][aThr]P[Pip]A[Pro(4R-Me)]; ester 2-C), in data set [2], the “Hs RD1” value was 0.59, the “Hs RD5” value is 0.91 and the “Hs RD25” value is listed as 1.02.
